These are literature values, as cited in patent US10500227B2, “Bioactive gas-encapsulated echogenic liposomes and methods for treating cardiovascular disease” (University of Cincinnati, priority 2014, dated 2019).

By half-life is commonly meant the time needed for the level to fall by half in the phase considered. Regarding `[N]=O` [NO, nitric oxide], the diffusivity entry (in muscular tissue) is reported as “roughly 3,300 μm^2 per second”. Further, under “in the presence of hemoglobin and oxygen in vivo”, the half-life was less than 1 s.
